Data reported in US20200405868A1, “GEL-FORMING POLYPEPTIDES” (priority 2018, published 2020).
Where no end group is shown, it is not given here. The star is where a group is joined. Palmitoyl = CCCCCCCCCCCCCCCC(=O)*

Assay: Compound gel-forming ability in water (visual inspection, tube tapping assay, tilted tube assay);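 also: peptides mixed with de-ionized water at about 22-25 °C, judged after 20 min by eye plus tube tapping (10 taps, moves counted) and 90° tilt mobility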
Format: physicochemical
Conditions: for gel formation at 11% w/w: 11% w/w in water; for gel formation at 20% w/w: 20% w/w in water; for Physical property at 11% w/w: 11% w/w in aqueous solution, room temperature; for gel formation in aqueous solution, 11% / propensity to form gels, wild-type counterparts, 11% / propensity to form gels, chimeric or mutated polypeptides, 11%: 11% w/w; for gel formation at 6% w/w: 6% w/w in water

IVLSLDVPIGLLQILLEQARARAAREQATTNARILARVGHC-NH2 [SEQ ID NO:31, reference compound]
gel formation at 11% w/w: does not form gel
gel formation at 20% w/w: does not form gel
Physical property at 11% w/w (Table 1): AS/IS
gel formation in aqueous solution, 11% (Table 3): AS/IS (AS/IS for aqueous solution or insoluble)
gel formation in aqueous solution, 20% (Table 3, 20% w/w): AS/IS (AS/IS for aqueous solution or insoluble)
propensity to form gels, wild-type counterparts, 11% (Table 5): AS/IS
propensity to form gels, wild-type counterparts, 20% (Table 5, 20% w/w): AS/IS
gel formation at the selected concentration (selected concentration (i.e., at 30%, 20%, 11%, or 6% w/w)): only form aqueous solution or are insoluble

KRPPGFS-(Dβal)-Ile-NH2 [SEQ ID NO:65, reference compound]
gel formation at 6% w/w: does not form a gel
gel formation at 11% w/w: does not form a gel
gel formation in aqueous solution, 6% (Table 3, 6% w/w): AS/IS (AS/IS for aqueous solution or insoluble)
gel formation in aqueous solution, 11% (Table 3): AS/IS (AS/IS for aqueous solution or insoluble)
propensity to form gels, wild-type counterparts, 6% (Table 5, 6% w/w): AS/IS
propensity to form gels, wild-type counterparts, 11% (Table 5): AS/IS

KTTKS-NH2 [SEQ ID NO:43, reference compound]
Physical property at 11% w/w (Table 1): AS/IS

PFRSVQ-NH2 [SEQ ID NO:37, reference compound]
gel formation at 11% w/w: does not form gel
Physical property at 11% w/w (Table 1): AS/IS
gel formation in aqueous solution, 11% (Table 3): AS/IS (AS/IS for aqueous solution or insoluble)
propensity to form gels, wild-type counterparts, 11% (Table 5): AS/IS

PGTCEICAYAACTGC [SEQ ID NO:40, reference compound]
Physical property at 11% w/w (Table 1): AS/IS

Pal-HSDAAVDTSSEITTKDLKEKKEVVEEAEN-NH2 [SEQ ID NO:267]
gel formation at 11% w/w: semisolid gel
gel formation in aqueous solution, 6% (Table 3, 6% w/w): SS (SS for semisolid gel)
gel formation in aqueous solution, 11% (Table 3): SS (SS for semisolid gel)
propensity to form gels, chimeric or mutated polypeptides, 6% (Table 5, 6% w/w): SS (An ability to form semisolid gel is represented by an SS)
propensity to form gels, chimeric or mutated polypeptides, 11% (Table 5): SS (An ability to form semisolid gel is represented by an SS)

Pal-HSY-(D-Ala)-GF(D-Leu)-NH2 [SEQ ID NO:213]
gel formation at 3% w/w (3% w/w in water): semisolid gels
gel formation in aqueous solution, 3% (Table 3, 3% w/w): SS (SS for semisolid gel)

Pal-HSY-(D-Met)-FHLMD-NH2 [SEQ ID NO:211]
gel formation at 6% w/w: semisolid or liquid gel
gel formation at 11% w/w: semisolid gel
gel formation in aqueous solution, 11% (Table 3): SS (SS for semisolid gel)

Pal-HSY-(D-Phe)-QWAVGHL-(4-Cl)Phe-NH2 [SEQ ID NO:255]
gel formation in aqueous solution, 11% (Table 3): SS (SS for semisolid gel)
propensity to form gels, chimeric or mutated polypeptides, 3% (Table 5, 3% w/w): AS/IS
propensity to form gels, chimeric or mutated polypeptides, 11% (Table 5): SS (An ability to form semisolid gel is represented by an SS)

Pal-HSY-NH2 [SEQ ID NO:120]
Physical property at 11% w/w (Table 2): SS (SS for semisolid gel)

Pal-HSY-Nle-cyclo[Asp-His-D-Phe-Arg-Trp-Lys]-NH2 [SEQ ID NO:257]
gel formation in aqueous solution, 11% (Table 3): SS (SS for semisolid gel)
gel formation in aqueous solution, 20% (Table 3, 20% w/w): SS (SS for semisolid gel)
propensity to form gels, chimeric or mutated polypeptides, 11% (Table 5): SS (An ability to form semisolid gel is represented by an SS)
propensity to form gels, chimeric or mutated polypeptides, 20% (Table 5, 20% w/w): SS (An ability to form semisolid gel is represented by an SS)

Pal-HSYAAVDTSSEITTKDLKEKKEVVEEAEN-NH2 [SEQ ID NO:240]
gel formation at 11% w/w: semisolid gel
gel formation in aqueous solution, 6% (Table 3, 6% w/w): AS/IS (AS/IS for aqueous solution or insoluble)
gel formation in aqueous solution, 11% (Table 3): SS (SS for semisolid gel)
propensity to form gels, chimeric or mutated polypeptides, 6% (Table 5, 6% w/w): AS/IS
propensity to form gels, chimeric or mutated polypeptides, 11% (Table 5): SS (An ability to form semisolid gel is represented by an SS)

Pal-HSYADAIFTNSYRKVLGQLSARKLLQDIMSR-NH2 (Palmitoyl-HSYADAIFTNSYRKVLGQLSARKLLQDIMSR-NH2; SMILES CCCCCCCCCCCCCCCC(=O)N[C@@H](Cc1c[nH]cn1)C(=O)N[C@@H](CO)C(=O)N[C@@H](Cc1ccc(O)cc1)C(=O)N[C@@H](C)C(=O)N[C@@H](CC(=O)O)C(=O)N[C@@H](C)C(=O)N[C@H](C(=O)N[C@@H](Cc1ccccc1)C(=O)N[C@H](C(=O)N[C@@H](CC(N)=O)C(=O)N[C@@H](CO)C(=O)N[C@@H](Cc1ccc(O)cc1)C(=O)N[C@@H](CCCNC(=N)N)C(=O)N[C@@H](CCCCN)C(=O)N[C@H](C(=O)N[C@@H](CC(C)C)C(=O)NCC(=O)N[C@@H](CCC(N)=O)C(=O)N[C@@H](CC(C)C)C(=O)N[C@@H](CO)C(=O)N[C@@H](C)C(=O)N[C@@H](CCCNC(=N)N)C(=O)N[C@@H](CCCCN)C(=O)N[C@@H](CC(C)C)C(=O)N[C@@H](CC(C)C)C(=O)N[C@@H](CCC(N)=O)C(=O)N[C@@H](CC(=O)O)C(=O)N[C@H](C(=O)N[C@@H](CCSC)C(=O)N[C@@H](CO)C(=O)N[C@@H](CCCNC(=N)N)C(N)=O)[C@@H](C)CC)C(C)C)[C@@H](C)O)[C@@H](C)CC) [SEQ ID NO:237]
gel formation at 20% w/w: semisolid gel
gel formation in aqueous solution, 6% (Table 3, 6% w/w): AS/IS (AS/IS for aqueous solution or insoluble)
gel formation in aqueous solution, 11% (Table 3): AS/IS (AS/IS for aqueous solution or insoluble)
gel formation in aqueous solution, 20% (Table 3, 20% w/w): SS (SS for semisolid gel)
propensity to form gels, chimeric or mutated polypeptides, 6% (Table 5, 6% w/w): AS/IS
propensity to form gels, chimeric or mutated polypeptides, 11% (Table 5): AS/IS
propensity to form gels, chimeric or mutated polypeptides, 20% (Table 5, 20% w/w): SS (An ability to form semisolid gel is represented by an SS)

Pal-HSYEEMQRR-NH2 [SEQ ID NO:250]
gel formation at 11% w/w: semisolid gel
gel formation in aqueous solution, 6% (Table 3, 6% w/w): AS/IS (AS/IS for aqueous solution or insoluble)
gel formation in aqueous solution, 11% (Table 3): SS (SS for semisolid gel)
propensity to form gels, chimeric or mutated polypeptides, 6% (Table 5, 6% w/w): AS/IS
propensity to form gels, chimeric or mutated polypeptides, 11% (Table 5): SS (An ability to form semisolid gel is represented by an SS)

Pal-HSYFFGLM-NH2 [SEQ ID NO:253]
gel formation in aqueous solution, 6% (Table 3, 6% w/w): AS/IS (AS/IS for aqueous solution or insoluble)
gel formation in aqueous solution, 11% (Table 3): SS (SS for semisolid gel)
propensity to form gels, chimeric or mutated polypeptides, 6% (Table 5, 6% w/w): AS/IS
propensity to form gels, chimeric or mutated polypeptides, 11% (Table 5): SS (An ability to form semisolid gel is represented by an SS)

Pal-HSYGTFTSDVSSYLEGQAAKEFIAWLVKGR-NH2 (Palmitoyl-HSYGTFTSDVSSYLEGQAAKEFIAWLVKGR-NH2; SMILES CCCCCCCCCCCCCCCC(=O)N[C@@H](Cc1c[nH]cn1)C(=O)N[C@@H](CO)C(=O)N[C@@H](Cc1ccc(O)cc1)C(=O)NCC(=O)N[C@H](C(=O)N[C@@H](Cc1ccccc1)C(=O)N[C@H](C(=O)N[C@@H](CO)C(=O)N[C@@H](CC(=O)O)C(=O)N[C@H](C(=O)N[C@@H](CO)C(=O)N[C@@H](CO)C(=O)N[C@@H](Cc1ccc(O)cc1)C(=O)N[C@@H](CC(C)C)C(=O)N[C@@H](CCC(=O)O)C(=O)NCC(=O)N[C@@H](CCC(N)=O)C(=O)N[C@@H](C)C(=O)N[C@@H](C)C(=O)N[C@@H](CCCCN)C(=O)N[C@@H](CCC(=O)O)C(=O)N[C@@H](Cc1ccccc1)C(=O)N[C@H](C(=O)N[C@@H](C)C(=O)N[C@@H](Cc1c[nH]c2ccccc12)C(=O)N[C@@H](CC(C)C)C(=O)N[C@H](C(=O)N[C@@H](CCCCN)C(=O)NCC(=O)N[C@@H](CCCNC(=N)N)C(N)=O)C(C)C)[C@@H](C)CC)C(C)C)[C@@H](C)O)[C@@H](C)O) [SEQ ID NO:221]
gel formation in aqueous solution, 6% (Table 3, 6% w/w): SS (SS for semisolid gel)
propensity to form gels, chimeric or mutated polypeptides, 6% (Table 5, 6% w/w): SS (An ability to form semisolid gel is represented by an SS)

Pal-HSYH-(D-Phe)-RWGKPV-NH2 [SEQ ID NO:273]
gel formation in aqueous solution, 11% (Table 3): SS (SS for semisolid gel)
gel formation in aqueous solution, 20% (Table 3, 20% w/w): SS (SS for semisolid gel)
propensity to form gels, chimeric or mutated polypeptides, 11% (Table 5): SS (An ability to form semisolid gel is represented by an SS)
propensity to form gels, chimeric or mutated polypeptides, 20% (Table 5, 20% w/w): SS (An ability to form semisolid gel is represented by an SS)

Pal-HSYKRPPGFS-(DβNal)-Ile-NH2 [SEQ ID NO:261]
gel formation at 6% w/w: liquid gel
gel formation at 11% w/w: semisolid gel
gel formation in aqueous solution, 11% (Table 3): SS (SS for semisolid gel)
propensity to form gels, chimeric or mutated polypeptides, 3% (Table 5, 3% w/w): AS/IS
propensity to form gels, chimeric or mutated polypeptides, 11% (Table 5): SS (An ability to form semisolid gel is represented by an SS)

Pal-HSYRPKPQQFF-Sar-L-Met-(02)-NH2 [SEQ ID NO:254]
gel formation in aqueous solution, 20% (Table 3, 20% w/w): SS (SS for semisolid gel)
propensity to form gels, chimeric or mutated polypeptides, 20% (Table 5, 20% w/w): SS (An ability to form semisolid gel is represented by an SS)

Pal-HSYSLDVPIGLLQILLEQARARAAREQATTNARILARVGHC-NH2 [SEQ ID NO:265]
gel formation at 20% w/w: semisolid or liquid gel
gel formation in aqueous solution, 11% (Table 3): AS/IS (AS/IS for aqueous solution or insoluble)
propensity to form gels, chimeric or mutated polypeptides, 11% (Table 5): AS/IS

Pal-HSYVMGHFRWDRF-NH2 [SEQ ID NO:260]
gel formation at 6% w/w: liquid gel

Pal-KPSSPHSY-NH2 (Palmitoyl-KPSSPHSY-NH2; SMILES CCCCCCCCCCCCCCCC(=O)N[C@@H](CCCCN)C(=O)N1CCC[C@H]1C(=O)N[C@@H](CO)C(=O)N[C@@H](CO)C(=O)N1CCC[C@H]1C(=O)N[C@@H](Cc1c[nH]cn1)C(=O)N[C@@H](CO)C(=O)N[C@@H](Cc1ccc(O)cc1)C(N)=O) [SEQ ID NO:118]
Physical property at 11% w/w (Table 2): SS (SS for semisolid gel)

Pal-KSY-NH2 [SEQ ID NO:121]
Physical property at 11% w/w (Table 2): SS (SS for semisolid gel)

Pal-KVQKLAHQIYQFTD(Aib)DSAPVDPSSPHSY-NH2 [SEQ ID NO:124]
Physical property at 11% w/w (Table 2): SS (SS for semisolid gel)

Pal-KVQKLAHQIYQFTDK(Aib)SAPVDPSSPHSY-NH2 [SEQ ID NO:125]
Physical property at 11% w/w (Table 2): AS/IS (AS/IS for aqueous solution or insoluble)

Pal-KVQKLAHQIYQFTDKD(Aib)APVDPSSPHSY-NH2 [SEQ ID NO:126]
Physical property at 11% w/w (Table 2): SS (SS for semisolid gel)

Pal-KVQKLAHQSAPVDPSSPHSY-NH2 [SEQ ID NO:105]
Physical property at 11% w/w (Table 2): AS/IS (AS/IS for aqueous solution or insoluble)

Pal-KVQKLNFVPTNVGSKAF-NH2 [SEQ ID NO:135]
Physical property at 11% w/w (Table 2): AS/IS (AS/IS for aqueous solution or insoluble)
